# From article PMC11433870, “Neurotoxicity, Neuroprotection, In Vitro MAOA/MAOB Inhibitory Activity Assessment, Molecular Docking, and Permeability Assay Studies of Newly Synthesized Hydrazones Containing a Pyrrole Ring” (Molecules, 2024)
# Where “and” joins values, the source holds several entries; their conditions need not be identical. Equal entries are not always repeated.
# Experiments:
# [1] = tested on: isolated rat brain synaptosomes; assay: Neurotoxicity: synaptosomal viability (MTT), substances applied alone; type: cell-based; settings: 50 µM applied alone, 1 h, compared to control (untreated synaptosomes)
# Method: (§1) Synaptosomes and mitochondria were obtained by multiple, subcellular fractionation using a Percoll gradient. The necessary brain homogenate was prepared and centrifuged at 1000× g for 5 min at +4 °C. After centrifugation, the supernatants were collected and centrifuged again at 1000× g for 5 min at +4 °C. The supernatants from the two centrifugations were mixed and distributed into four tubes. The tubes were centrifuged at 10,000× g for 20 min at +4 °C three times. The last two centrifugations were for purification of synaptosomes and mitochondria.
# (§2) The isolation of the required fractions was based on the formation of a colloidal solution of silicon (Percoll), as per the procedure, including: 1. Preparation of a 90% stock solution of Percoll, followed by preparation of two Percoll solutions of different percentages: 16% and 10%. An amount of 4 mL of each of the prepared 16% and 10% Percoll solutions was placed in six test tubes. A 90% Percoll (7.5% Percoll) was added to the precipitate obtained from the previous step from the last centrifugation. The obtained mixtures in all 12 tubes were centrifuged for 20 min at 15,000× g +4 °C. After centrifugation, three layers are formed in the tubes. The bottom layer contains mitochondria, the top layer contains lipids, and the middle layer—at the 16% to 10% Percoll limit—contains synaptosomes. The respective layer from each tube is removed through a glass pasteurizer and collected into one. Buffer B + glucose is added to it. The mixture was centrifuged at 10,000× g for 20 min at +4 °C. Thus, the isolation buffer is exchanged with the incubation buffer. After centrifugation, the pellet where the synaptosomes are mixed and made up with buffer B + glucose.
# (§3) Synaptosomes and mitochondria were incubated with the test substances at a concentration of 50 µM for 1 h.
# After 1 h incubation with the substances and toxic agent, synaptosomes were centrifuged on a microcentrifuge for 1 min at 15,000× g. The pellet was mixed gently with buffer B + glucose, and the supernatant where 6-OHDA was discarded to prevent oxidation of MTT. Centrifuge again at 15,000× g for 1 min. After the second wash, buffer B + glucose was added to the pellet. To the ‘washed’ synaptosomes, 60 µL of MTT solution is added. The plates were incubated with the MTT solution at 37 °C for 10 min. After incubation, the samples were centrifuged at 15,000× g for 2 min. The excess liquid was removed, and a DMSO solution was used to dissolve the formed formazan crystals. After dissolution, the amount of formazan is measured spectrophotometrically at λ = 580 nm.
# [2] = tested on: isolated rat brain synaptosomes; assay: Neurotoxicity: reduced glutathione (GSH) level in synaptosomes, substances applied alone; type: cell-based; settings: 50 µM applied alone, 1 h, compared to control
# Method: as §1, §2, §3
# (§4) After precipitation of the proteins with trichloroacetic acid, the thiol groups in the supernatant were determined by DTNB, which produced a yellow-colored compound that absorbs light at λ = 412 nm. After incubation, synaptosomes were centrifuged at 4000× g for 3 min. The supernatant was removed and the pellet taken for GSH determination. It was treated with 5% trichloroacetic acid, then left for 10 min on ice. It was centrifuged at 8000× g for 10 min (2 °C). The supernatant is taken for GSH determination and frozen at −20 °C. Immediately before measurement, the samples are neutralized with 5N NaOH [58].
# [3] = tested on: isolated rat brain mitochondria; assay: Neurotoxicity: MDA production in brain mitochondria, substances applied alone; type: cell-based; settings: 50 µM applied alone, compared to control
# Method: as §1, §2, §3
# To the mitochondria was added 0.3 mL of 0.2% thiobarbituric acid and 0.25 mL of sulfuric acid (0.05 M), and the mixture was boiled for 30 min. After boiling, the tubes were placed on ice, and 0.4 mL of n-butanol was added to each, then centrifuged at 3500× g for 10 min. The amount of MDA was determined spectrophotometrically at 532 nm.
# [4] = tested on: isolated rat brain mitochondria; assay: Neurotoxicity: GSH level in brain mitochondria, substances applied alone; type: cell-based; settings: 50 µM applied alone, compared to control
# Method: as §1, §2
# […]. After centrifugation of the homogenate at 6000× g, a 0.04% solution of DTNB was added to the supernatant to give a yellow color, the determination being spectrophotometric at 412 nm.
# [5] = tested on: isolated rat brain microsomes; assay: Neurotoxicity: MDA production in brain microsomes, substances applied alone; type: cell-based; settings: 50 µM applied alone, compared to control
# Method: (§5) The brain was homogenized in 9 volume parts of 0.1 M Tris buffer containing: 0.1 mM dithiothreitol, 0.1 mM phenylmethylsulfonyl fluoride, 0.2 mM EDTA, 1.15% KCl, and 20% (v/v) glycerol (pH 7.4). The resulting homogenate was centrifuged twice at 17,000× g for 30 min. The supernatants from the two centrifugations were pooled and centrifuged twice at 100,000× g for 1 h. The pellet was frozen in 0.1 M Tris buffer.
# (§6) After completion of incubation of the microsomes with the substances and toxic agent, the reaction was stopped by the addition of 0.5 mL of 20% trichloroacetic acid, followed by 0.5 mL of 0.67% thiobarbituric acid. The ongoing reactions are associated with the formation of a colored complex between the malondialdehyde formed and thiobarbituric acid. The determination of MDA was spectrophotometric at 535 nm. A molar extinction coefficient of […] was used for the calculation.
# [6] = tested on: isolated rat brain synaptosomes; assay: 6-OHDA-induced neurotoxicity model: GSH level; type: cell-based; settings: 50 µM in combination with 6-OHDA (150 µM), compared to the toxic agent
# Method: as §1, §2, §3
# Synaptosomes were incubated with 6-OHDA (150 μM) for 1 h.
# as §4
# [7] = tested on: isolated rat brain microsomes; assay: Fe2+/AA-induced non-enzyme lipid peroxidation model: MDA production; type: cell-based; settings: 50 µM in combination with Fe2+/AA, compared to the toxic agent
# Method: as §5
# Non-enzyme-induced lipid peroxidation was induced with 20 μM ferrous sulfate solution and 0.5 mM ascorbic acid solution [62].
# as §6
# [8] = molecular target: T1, human recombinant MAOA enzyme (hMAOA) (Homo sapiens, UniProt P21397); assay: Human recombinant MAOA enzyme activity (fluorometric, Amplex Red); type: biochemical; settings: read-out: IC50 (EC50), (µM ± SD) hMAOA
# T1 sequence (P21397 1-527): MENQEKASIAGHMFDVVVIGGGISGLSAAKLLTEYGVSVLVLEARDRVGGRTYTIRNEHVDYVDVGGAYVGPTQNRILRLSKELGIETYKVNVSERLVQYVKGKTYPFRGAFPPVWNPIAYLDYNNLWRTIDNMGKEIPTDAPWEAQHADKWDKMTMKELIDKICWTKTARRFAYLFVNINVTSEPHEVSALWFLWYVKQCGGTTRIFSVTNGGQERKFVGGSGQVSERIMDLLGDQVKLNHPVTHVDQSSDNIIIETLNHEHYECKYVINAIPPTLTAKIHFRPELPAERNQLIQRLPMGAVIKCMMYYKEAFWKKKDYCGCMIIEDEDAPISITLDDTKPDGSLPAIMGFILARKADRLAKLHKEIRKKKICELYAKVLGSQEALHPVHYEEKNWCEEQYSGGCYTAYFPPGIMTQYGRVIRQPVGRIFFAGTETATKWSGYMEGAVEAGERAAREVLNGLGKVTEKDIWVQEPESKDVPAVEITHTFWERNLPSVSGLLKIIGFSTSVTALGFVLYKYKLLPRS
# Method: (§7) The activity of recombinant human MAOA/B was determined fluorometrically. Tyramine hydrochloride was used as substrate. The activity is determined by detection of H2O2 production. This production is in turn reported by binding to horseradish peroxidase using N-acetyl-3,7-dihydroxyphenoxazine (AmplexRed, Thermo Fisher Scientific, Waltham, MA, USA) [63].
# (§8) Working solutions of the test substances, reagents, and human recombinant MAOA/B enzyme (hMAOA/B) were prepared in reaction buffer according to the manufacturer’s instructions. A pure working solution of MAOA/B in reaction buffer, a working solution of MAOA/B containing hydrogen peroxide, and a pure reaction buffer were used as controls. Substances were applied at a final concentration of 1 µM. The substances together with hMAOB were placed in a 96-well plate (8 samples for each substance), and then the plate was placed in an incubator for 30 min (in the dark, at 37 °C). Fluorimetric readings were performed in a Synergy 2 Microplate Reader at two wavelengths (570 nm and 690 nm).
# [9] = molecular target: T2, human recombinant MAOB enzyme (hMAOB) (Homo sapiens, UniProt P27338); assay: Human recombinant MAOB enzyme activity (fluorometric, Amplex Red); type: biochemical; settings: for inhibition at 1 µM: compared to control (pure hMAOB); for IC50: read-out: IC50 (EC50), (µM ± SD) hMAOB;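 on all read-outs here: tyramine as substrate, H2O2 formation detected by horseradish peroxidase coupled Amplex Red fluorescence read at 570 and 690 nm, compounds incubated with enzyme 30 min at 37 °C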
# T2 sequence (P27338 1-520): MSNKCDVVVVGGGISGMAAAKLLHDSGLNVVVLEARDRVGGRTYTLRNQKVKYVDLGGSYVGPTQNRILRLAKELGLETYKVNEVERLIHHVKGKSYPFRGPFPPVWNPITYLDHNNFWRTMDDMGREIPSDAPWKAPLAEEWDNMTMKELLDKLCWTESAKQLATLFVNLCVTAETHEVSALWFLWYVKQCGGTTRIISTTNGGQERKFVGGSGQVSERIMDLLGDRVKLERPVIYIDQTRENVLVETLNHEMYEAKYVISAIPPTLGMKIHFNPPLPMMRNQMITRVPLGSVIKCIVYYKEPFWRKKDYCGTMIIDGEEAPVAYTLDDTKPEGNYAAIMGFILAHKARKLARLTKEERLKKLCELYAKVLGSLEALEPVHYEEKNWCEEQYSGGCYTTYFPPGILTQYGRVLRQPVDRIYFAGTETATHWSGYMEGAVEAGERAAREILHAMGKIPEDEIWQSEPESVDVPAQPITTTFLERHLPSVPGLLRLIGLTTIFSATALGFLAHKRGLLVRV
# Method: as §7, §8
# [10] = pH 7.4, 50 µM, 4 h, 25 °C; Pe calculated in 10^−6 cm/s, presented as −logPe
# [11] = tested on: isolated rat brain mitochondria; assay: t-BuOOH-induced oxidative stress model: GSH level; settings: 50 µM in combination with t-BuOOH (75 µM), compared to the toxic agent
# [12] = tested on: isolated rat brain mitochondria; assay: t-BuOOH-induced oxidative stress model: MDA production; settings: 50 µM in combination with t-BuOOH (75 µM), compared to the toxic agent
SMILES,decrease of synaptosomal viability [1],decrease of glutathione (GSH) level [2],increase of MDA production [3],decrease of GSH level [4],increase of MDA production [5],preservation of GSH level [6],decrease of MDA production [7],IC50 [8],SI: hMAOB selectivity index = IC50(hMAOA)/IC50(hMAOB) [9],inhibition at 1 µM [9],IC50 [9],PAMPA BBB −logPe [10],preservation of GSH level [11],reduction of MDA production [12]
CCOC(=O)c1cc(-c2ccc(Br)cc2)n(CC(=O)NN=Cc2ccc(N(C)C)cc2)c1C [7a],30%,25%,63%,20%,54%,50%,34%,> 100 µM,>123,20%,0.812 ± 0.1 µM,4.849 ± 0.043,40%,14%
CCOC(=O)c1cc(-c2ccc(Br)cc2)n(CC(=O)NN=Cc2ccc(Cl)cc2)c1C [7b],25%,15%,43%,15%,40%,60%,46%,> 100 µM,>181,40%,0.551 ± 0.1 µM,4.416 ± 0.022 and 4.416,70%,28%
CCOC(=O)c1cc(-c2ccc(Br)cc2)n(CC(=O)NN=Cc2ccc([N+](=O)[O-])cc2)c1C [7c],35%,20%,53%,25%,51%,50%,35%,> 100 µM,>123,25%,0.815 ± 0.2 µM,4.601 ± 0.040,40%,18%
CCOC(=O)c1cc(-c2ccc(Br)cc2)n(CC(=O)NN=Cc2cc(OC)c(O)c(OC)c2)c1C [7d],20%,15%,34%,15%,27%,70%,52%,> 100 µM,>204,45%,0.491 ± 0.09 µM,4.819 ± 0.004 and 4.819,80%,35%
CCOC(=O)c1cc(-c2ccc(Br)cc2)n(CC(=O)NN=Cc2ccc(OC)cc2OC)c1C [7e],30%,25%,50%,25%,52%,40%,31%,> 100 µM,>123,35%,0.81 ± 0.09 µM,4.814 ± 0.15,50%,10%
CCOC(=O)c1cc(-c2ccc(Br)cc2)n(CCC(=O)NN=Cc2ccc(N(C)C)cc2)c1C [8a],35%,25%,60%,20%,55%,40%,35%,> 100 µM,>122,20%,0.821 ± 0.1 µM,5.268 and 5.268 ± 0.014,60%,18%
CCOC(=O)c1cc(-c2ccc(Br)cc2)n(CCC(=O)NN=Cc2ccc(Cl)cc2)c1C [8b],30%,20%,52%,20%,51%,50%,31%,> 100 µM,>123,25%,0.815 ± 0.1 µM,4.444 ± 0.004,50%,9%
